{"source": "paper PMC8536978", "about": "(Viruses, 2021)", "key": {"HIV-1 IIIB [1]": {"test_system": "HIV-1 IIIB", "experiment": "HIV-1 IIIB replication in PBMCs (p24 ELISA, gag and nef mRNA RT-PCR)", "type": "cell-based", "conditions": "for reduction in gag mRNA / reduction in p24 / reduction in HIV-1 nef mRNA: PBMCs infected with HIV-1 IIIB; for reduction in gag mRNA / reduction in HIV-1 nef mRNA: real-time RT-PCR; for reduction in p24: p24 ELISA"}, "[2]": {"test_system": "HIV-1 reverse transcription", "experiment": "HIV-1 reverse transcription, early and late LTR DNA products by real-time PCR", "type": "cell-based", "conditions": "HIV-1 DNA 6 h post infection"}, "PBMCs": {"test_system": "PBMCs", "experiment": "Trypan blue exclusion viability of HIV-1 IIIB infected PBMCs", "type": "cell-based"}, "luciferase translation": {"test_system": "luciferase translation", "experiment": "In vitro translation of luciferase RNA in rabbit reticulocyte lysate", "type": "biochemical", "conditions": "30 μM, 90 min"}, "TAR RNA": {"test_system": "TAR RNA", "set-up": "method as in earlier work", "conditions": "cited from earlier work"}, "[3]": {"target": "Tat–cyclin T1 interaction (UniProt O60563+P04608)", "sequence (P04608 whole entry)": "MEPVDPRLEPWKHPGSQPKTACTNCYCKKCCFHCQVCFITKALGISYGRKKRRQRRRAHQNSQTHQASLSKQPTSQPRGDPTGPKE", "sequence (O60563 whole entry)": "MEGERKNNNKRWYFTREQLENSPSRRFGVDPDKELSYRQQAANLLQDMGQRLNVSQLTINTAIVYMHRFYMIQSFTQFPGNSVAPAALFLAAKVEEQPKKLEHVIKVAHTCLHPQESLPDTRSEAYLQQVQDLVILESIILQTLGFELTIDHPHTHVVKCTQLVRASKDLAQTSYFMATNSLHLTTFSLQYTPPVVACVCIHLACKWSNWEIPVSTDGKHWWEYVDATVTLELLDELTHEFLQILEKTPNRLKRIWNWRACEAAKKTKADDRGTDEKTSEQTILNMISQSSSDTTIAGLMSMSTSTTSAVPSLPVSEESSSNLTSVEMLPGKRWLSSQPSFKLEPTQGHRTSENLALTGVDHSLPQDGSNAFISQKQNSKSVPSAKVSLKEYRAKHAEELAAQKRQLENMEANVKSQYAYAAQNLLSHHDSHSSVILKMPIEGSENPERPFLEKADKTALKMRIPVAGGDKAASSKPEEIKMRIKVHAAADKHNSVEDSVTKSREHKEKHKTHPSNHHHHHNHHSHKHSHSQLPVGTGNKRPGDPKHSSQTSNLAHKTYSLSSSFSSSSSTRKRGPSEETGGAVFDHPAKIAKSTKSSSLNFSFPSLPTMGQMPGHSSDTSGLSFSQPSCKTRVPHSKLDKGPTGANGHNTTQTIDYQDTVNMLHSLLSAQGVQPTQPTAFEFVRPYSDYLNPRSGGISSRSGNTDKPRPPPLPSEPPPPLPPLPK", "experiment": "Co-immunoprecipitation of cyclin T1 with Flag-Tat from 293T cells", "type": "cell-based", "conditions": "24 h; for reduction of cyclin T1 associated with Tat: 20 μM"}, "[4]": {"experiment": "MTT cell proliferation/viability assay", "type": "cell-based", "conditions": "human, CEM T cells, 1-100 μM"}, "HIV-1 LTR + Tat": {"test_system": "HIV-1 LTR + Tat", "type": "cell-based", "conditions": "Human immunodeficiency virus 1, HEK-293T, 24 h, read-out: HIV-1 LTR + Tat (Tat-induced transcription) IC50"}, "HIV-1 IIIB [5]": {"test_system": "HIV-1 IIIB", "experiment": "HIV-1 IIIB replication in CEM T cells (p24 ELISA, gag mRNA RT-PCR)", "type": "cell-based", "conditions": "CEM T cells infected with HIV-1 IIIB; for reduction in p24 levels: p24 ELISA; for reduction of HIV-1 gag mRNA: real-time RT-PCR"}, "Tat–CDK9 interaction": {"target": "Tat–CDK9 interaction (UniProt P04608+P50750)", "sequence (P04608 whole entry)": "as the sequence (P04608 whole entry) above", "sequence (P50750 whole entry)": "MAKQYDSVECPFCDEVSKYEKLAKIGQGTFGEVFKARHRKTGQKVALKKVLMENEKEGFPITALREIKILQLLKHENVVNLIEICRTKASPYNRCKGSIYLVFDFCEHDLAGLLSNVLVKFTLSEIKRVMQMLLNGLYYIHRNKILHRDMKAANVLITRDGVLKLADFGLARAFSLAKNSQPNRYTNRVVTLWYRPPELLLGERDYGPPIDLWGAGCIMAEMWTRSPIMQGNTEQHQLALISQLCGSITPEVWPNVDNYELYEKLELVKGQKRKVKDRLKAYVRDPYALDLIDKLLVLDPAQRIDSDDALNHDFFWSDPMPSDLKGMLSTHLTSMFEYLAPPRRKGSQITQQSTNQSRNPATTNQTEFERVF", "experiment": "Co-immunoprecipitation of CDK9 with Flag-Tat from 293T cells", "type": "cell-based", "conditions": "20 μM, 24 h"}, "Tat–TAR RNA interaction": {"test_system": "Tat–TAR RNA interaction", "experiment": "Tat–TAR RNA interaction pull-down assay", "type": "binding, HIV-1", "conditions": "10 µM compound, Flag-Tat lysate, biotinylated TAR RNA on beads"}, "[6]": {"test_system": "HIV-1-LUC-G (VSVG pseudotyped HIV-1 expressing luciferase)", "experiment": "microbe, parasite or virus in culture", "type": "cell-based", "conditions": "for IC50: read-out: One round HIV-1 infection IC50"}, "HIV-1 LTR": {"test_system": "HIV-1 LTR", "experiment": "Basal HIV-1 transcription, HIV-1 LTR-luciferase reporter in 293T cells", "type": "cell-based", "conditions": "HIV-1 LTR-luciferase reporter alone, 24 h treatment"}, "[7]": {"conditions": "Human immunodeficiency virus 1, T-cell"}}, "note": "Like-named read-outs stand apart in the source and are kept apart here.", "data": [{"smiles": "Cc1cn([C@H]2C[C@H](N=[N+]=[N-])[C@@H](CO)O2)c(=O)[nH]c1=O", "note": "[AZT, azidothymidine]", "values": [{"measurement": "reduction in gag mRNA", "setting": "HIV-1 IIIB [1]", "result": "strongly inhibited HIV-1"}, {"measurement": "reduction of HIV-1 early LTR products", "setting": "[2]", "result": 1.8, "unit": "fold"}, {"measurement": "reduction of HIV-1 late LTR products", "setting": "[2]", "result": 63, "unit": "fold"}, {"measurement": "reduction of PBMCs viability", "setting": "PBMCs; human, 48 h", "result": 29, "unit": "%"}]}, {"smiles": "C[C@@H]1C[C@@H]([C@H](O)CC2CC(=O)NC(=O)C2)C(=O)[C@@H](C)C1", "note": "[cycloheximide, reference compound]", "values": [{"measurement": "reduction in luciferase translation", "setting": "luciferase translation", "result": "completely blocked translation"}]}, {"smiles": "CC(=O)c1ccc2c(c1)N(CCCN(C)C)c1ccccc1S2", "note": "[acetylpromazine]", "values": [{"measurement": "affinity of binding to TAR RNA", "setting": "TAR RNA", "result": "high affinity (nanomolar)"}]}, {"smiles": "Cc1nnc(C(=O)NC(C)(C)c2nc(C(=O)NCc3ccc(F)cc3)c(O)c(=O)n2C)o1", "note": "[raltegravir, reference compound]", "values": [{"measurement": "reduction in gag mRNA", "setting": "HIV-1 IIIB [1]", "result": "strongly inhibited HIV-1"}, {"measurement": "reduction of PBMCs viability", "setting": "PBMCs; HIV-1 IIIB infected PBMCs, trypan blue exclusion", "result": 18, "unit": "%"}]}, {"smiles": "Nc1ccc2oc(-c3cc(F)c(F)cc3Cl)nc2c1", "note": "[T0516-4834]", "values": [{"measurement": "inhibition at 20 µM", "setting": "[3]; HEK-293T, read-out: reduction of cyclin T1 associated with Tat", "result": "< 20", "unit": "%"}, {"measurement": "HIV-1 inhibition", "setting": "HIV-1 IIIB [1]; HIV-1 IIIB infected PBMCs, 10 µM", "result": "~ 10 fold"}, {"measurement": "reduction in p24", "setting": "HIV-1 IIIB [1]", "result": 4, "unit": "fold"}, {"measurement": "reduction in HIV-1 nef mRNA", "setting": "HIV-1 IIIB [1]", "result": 10, "unit": "fold"}, {"measurement": "reduction in gag mRNA", "setting": "HIV-1 IIIB [1]", "result": 2.5, "unit": "fold"}, {"measurement": "EC50 at 24 h", "setting": "[4]", "result": "> 100", "unit": "µM"}, {"measurement": "reduction in luciferase translation", "setting": "luciferase translation", "result": "~ 30%"}, {"measurement": "IC50", "setting": "HIV-1 LTR + Tat", "result": 2, "unit": "µM"}, {"measurement": "reduction in p24 levels", "setting": "HIV-1 IIIB [5]", "result": 4, "unit": "fold"}, {"measurement": "reduction of HIV-1 gag mRNA", "setting": "HIV-1 IIIB [5]", "result": 27, "unit": "fold"}, {"measurement": "reduction in CDK9 associated with Tat", "setting": "Tat–CDK9 interaction", "result": 1.4, "unit": "fold"}, {"measurement": "inhibition of Tat binding to TAR RNA", "setting": "Tat–TAR RNA interaction", "result": 2.5, "unit": "fold"}, {"measurement": "Luciferase (%, relative to DMSO control)", "setting": "[6]", "result": 37.74, "unit": "%"}, {"measurement": "IC50", "setting": "[6]; [7]", "result": 0.2, "unit": "µM"}, {"measurement": "IC50", "setting": "[6]", "result": 0.3, "unit": "µM"}]}, {"smiles": "O=C(O)COc1ccc(/C=C/C(=O)c2ccc3c(c2)OCO3)cc1", "note": "[T6780107]", "values": [{"measurement": "reduction of cyclin T1 associated with Tat", "setting": "[3]", "result": "no significant effect"}, {"measurement": "reduction in p24", "setting": "HIV-1 IIIB [1]", "result": "No significant effect"}, {"measurement": "reduction in HIV-1 nef mRNA", "setting": "HIV-1 IIIB [1]", "result": "no effect"}, {"measurement": "reduction in gag mRNA", "setting": "HIV-1 IIIB [1]", "result": "No significant effect"}, {"measurement": "EC50 at 24 h", "setting": "[4]", "result": "> 100", "unit": "µM"}, {"measurement": "IC50", "setting": "HIV-1 LTR", "result": 4.63, "unit": "µM"}, {"measurement": "IC50", "setting": "HIV-1 LTR + Tat", "result": 3.5, "unit": "µM"}, {"measurement": "reduction in p24 levels", "setting": "HIV-1 IIIB [5]", "result": 2.2, "unit": "fold"}, {"measurement": "reduction of HIV-1 gag mRNA", "setting": "HIV-1 IIIB [5]", "result": 5.5, "unit": "fold"}, {"measurement": "reduction in CDK9 associated with Tat", "setting": "Tat–CDK9 interaction", "result": "no effect"}, {"measurement": "Luciferase (%, relative to DMSO control)", "setting": "[6]", "result": 18.24, "unit": "%"}, {"measurement": "IC50", "setting": "[6]; [7]", "result": 2.97, "unit": "µM"}, {"measurement": "IC50", "setting": "[6]", "result": 3.7, "unit": "µM"}]}, {"smiles": "O=C1OCCC1Sc1nnc(-c2sc3ccccc3c2Cl)o1", "note": "(centres unmarked) [T5628834]", "values": [{"measurement": "reduction of cyclin T1 associated with Tat", "setting": "[3]", "result": 1.6, "unit": "fold"}, {"measurement": "reduction in p24", "setting": "HIV-1 IIIB [1]", "result": 3.2, "unit": "fold"}, {"measurement": "reduction in HIV-1 nef mRNA", "setting": "HIV-1 IIIB [1]", "result": "no effect"}, {"measurement": "EC50 at 24 h", "setting": "[4]", "result": "> 100", "unit": "µM"}, {"measurement": "IC50", "setting": "HIV-1 LTR + Tat", "result": 20, "unit": "µM"}, {"measurement": "reduction in p24 levels", "setting": "HIV-1 IIIB [5]", "result": 1.26, "unit": "fold"}, {"measurement": "reduction of HIV-1 gag mRNA", "setting": "HIV-1 IIIB [5]", "result": 1.6, "unit": "fold"}, {"measurement": "reduction in CDK9 associated with Tat", "setting": "Tat–CDK9 interaction", "result": 4, "unit": "fold"}, {"measurement": "Luciferase (%, relative to DMSO control)", "setting": "[6]", "result": 28.71, "unit": "%"}, {"measurement": "IC50", "setting": "[6]; [7]", "result": 3.46, "unit": "µM"}, {"measurement": "IC50", "setting": "[6]", "result": 3.7, "unit": "µM"}]}]}
